# Laboratory results taken from article PMC10247784, “Physiological activation of human and mouse bitter taste receptors by bile acids” (Communications Biology, 2023).
# Several values for one entry are separate records, joined by “and”; a condition that tells them apart may be missing. Equal values may be shown once.
# Target: T1, human TAS2R1 (Homo sapiens, UniProt Q9NYW7)
# T1 construct: expressed in transfected cells; host or cells: HEK293T-Gα16gust44
# T1 sequence (Q9NYW7 1-299): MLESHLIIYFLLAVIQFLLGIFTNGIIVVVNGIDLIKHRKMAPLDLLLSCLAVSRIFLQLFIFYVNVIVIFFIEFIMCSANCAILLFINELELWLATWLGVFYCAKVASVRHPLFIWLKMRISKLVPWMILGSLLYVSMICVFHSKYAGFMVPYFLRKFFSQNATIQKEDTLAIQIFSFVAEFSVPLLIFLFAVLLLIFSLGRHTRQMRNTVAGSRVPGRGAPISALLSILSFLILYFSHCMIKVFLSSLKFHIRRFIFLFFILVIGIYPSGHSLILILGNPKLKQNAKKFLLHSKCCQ
# Assay: Calcium imaging assay (FLIPR), HEK293T-Gα16gust44 cells transfected with human TAS2R1
# Type: cell-based
# How it was run: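 Bile acids from DMSO stocks are applied to dye-loaded cells one day after transient receptor transfection, and calcium-dependent fluorescence is recorded. Maximum signal is standardized to basal and normalized to buffer-only wells, with empty-vector signal subtracted.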
smiles,measurement,setting,value
"C[C@H](CCC(=O)NCC(=O)O)[C@H]1CC[C@H]2[C@@H]3[C@H](O)C[C@@H]4C[C@H](O)CC[C@]4(C)[C@H]3C[C@H](O)[C@]12C [Glycocholic Acid, glycocholic acid]",Efficacy = maximal amplitude (ΔF/F),"TAS2R1, bile acids, mean",0.1325
same,"Efficacy (maximal amplitude ΔF/F), individual data points","TAS2R1, bile acids, single replicates, listed as GCA",0.1311 and 0.1247 and 0.1416
same,RLU,Time 0 s (second time grid),0 RLU
same,RLU,Time 2 s,1.34 RLU
same,RLU,Time 4 s,-10.9328 RLU
same,RLU,Time 6 s,-2.093 RLU
same,RLU,Time 8 s,-18.797 RLU
same,RLU,Time 12 s,-1.765 RLU
same,RLU,Time 14 s,-6.3 RLU
same,RLU,Time 16 s,4.111 RLU
same,RLU,Time 18 s,11.3452 RLU
same,RLU,Time 18.781 s,-8.381 RLU
same,RLU,Time 20.781 s,-65.4734 RLU
same,RLU,Time 22.781 s,-29.3432 RLU
same,RLU,Time 24.781 s,49.9011 RLU
same,RLU,Time 26.781 s,96.1968 RLU
same,RLU,Time 28.781 s,184.074 RLU
same,RLU,Time 30.781 s,256.685 RLU
same,RLU,Time 32.781 s,311.082 RLU
same,RLU,Time 34.781 s,379.127 RLU
same,RLU,Time 36.781 s,406.227 RLU
same,RLU,Time 38.781 s,484.171 RLU
same,RLU,Time 40.781 s,488.749 RLU
same,RLU,Time 42.781 s,562.235 RLU
same,RLU,Time 44.781 s,571.006 RLU
same,RLU,Time 46.781 s,594.154 RLU
same,RLU,Time 48.781 s,570.694 RLU
same,RLU,Time 50.781 s,587.34 RLU
same,RLU,Time 52.781 s,583.343 RLU
same,RLU,Time 54.781 s,607.705 RLU
same,RLU,Time 56.781 s,600.065 RLU
same,RLU,Time 58.781 s,617.139 RLU
same,RLU,Time 60.781 s,617.101 RLU
same,RLU,Time 62.781 s,619.569 RLU
same,RLU,Time 64.781 s,627.557 RLU
same,RLU,Time 66.781 s,602.719 RLU
same,RLU,Time 68.781 s,631.839 RLU
same,RLU,Time 70.781 s,609.358 RLU
same,RLU,Time 72.781 s,606.454 RLU
same,RLU,Time 74.781 s,603.445 RLU
same,RLU,Time 76.781 s,621.396 RLU
same,RLU,Time 78.781 s,618.749 RLU
same,RLU,Time 80.781 s,605.728 RLU
same,RLU,Time 82.781 s,588.632 RLU
same,RLU,Time 84.781 s,592.001 RLU
same,RLU,Time 86.781 s,573.367 RLU
same,RLU,Time 88.781 s,587.481 RLU
same,RLU,Time 90.781 s,582.427 RLU
same,RLU,Time 92.781 s,543.758 RLU
same,RLU,Time 94.781 s,568.088 RLU
same,RLU,Time 96.781 s,550.308 RLU
same,RLU,Time 98.781 s,566.578 RLU
same,RLU,Time 100.781 s,550.017 RLU
same,RLU,Time 102.781 s,549.55 RLU
same,RLU,Time 104.781 s,541.673 RLU
same,RLU,Time 106.781 s,534.917 RLU
same,RLU,Time 108.781 s,501.47 RLU
same,RLU,Time 110.781 s,477.052 RLU
same,RLU,Time 112.781 s,487.765 RLU
same,RLU,Time 114.781 s,493.52 RLU
same,RLU,Time 116.781 s,450.802 RLU
same,RLU,Time 118.781 s,454.358 RLU
same,RLU,Time 120.781 s,451.439 RLU
same,RLU,Time 122.781 s,430.145 RLU
same,RLU,Time 124.781 s,453.415 RLU
same,RLU,Time 126.781 s,442.632 RLU
same,RLU,Time 128.781 s,400.74 RLU
same,RLU,Time 130.781 s,403.872 RLU
same,RLU,Time 132.781 s,393.75 RLU
same,RLU,Time 134.781 s,397.711 RLU
same,RLU,Time 136.781 s,397.074 RLU
same,RLU,Time 137.547 s,371.152 RLU
same,RLU,Time 143.547 s,348.952 RLU
same,RLU,Time 149.547 s,319.38 RLU
same,RLU,Time 155.547 s,291.839 RLU
same,RLU,Time 161.547 s,291.362 RLU
same,RLU,Time 167.547 s,251.037 RLU
same,RLU,Time 173.547 s,217.997 RLU
same,RLU,Time 179.547 s,213.168 RLU
same,RLU,Time 185.547 s,202.093 RLU
same,RLU,Time 191.547 s,176.088 RLU
same,RLU,Time 197.547 s,167.876 RLU
same,RLU,Time 203.547 s,164.283 RLU
same,RLU,Time 209.547 s,146.788 RLU
same,RLU,Time 215.547 s,144.843 RLU
same,RLU,Time 221.547 s,126.114 RLU
same,RLU,Time 227.547 s,89.1702 RLU
same,RLU,Time 233.547 s,107.472 RLU
same,RLU,Time 239.547 s,82.2731 RLU
same,RLU,Time 245.547 s,57.4201 RLU
same,RLU,Time 293.547 s,58.9267 RLU
same,RLU,Time 299.547 s,40.6004 RLU
same,RLU,"calcium trace, sheet TAS2R1, Time 305.547 s",58.5113 RLU
same,RLU,"calcium trace, sheet TAS2R1, Time 311.547 s",53.2069 RLU
same,RLU,"calcium trace, sheet TAS2R1, Time 317.547 s",43.3091 RLU
same,RLU,"calcium trace, sheet TAS2R1, Time 323.547 s",43.6147 RLU
same,RLU,"calcium trace, sheet TAS2R1, Time 329.547 s",33.081 RLU
same,RLU,"calcium trace, sheet TAS2R1, Time 335.547 s",47.1496 RLU
same,RLU,"calcium trace, sheet TAS2R1, Time 341.547 s",32.1596 RLU
same,RLU,"calcium trace, sheet TAS2R1, Time 347.547 s",48.6454 RLU
same,RLU,"calcium trace, sheet TAS2R1, Time 353.547 s",51.461 RLU
same,RLU,"calcium trace, sheet TAS2R1, Time 359.547 s",49.6251 RLU
same,Δ F/F,"conc. 0,01 mM, TAS2R1",0.004283
same,Δ F/F,"conc. 0,1 mM, TAS2R1",0.04907
same,Δ F/F,"conc. 0,03 mM, TAS2R1",0.009584
same,Δ F/F,"conc. 0,3 mM, TAS2R1",0.1325
same,Δ F/F,"conc. 0,001 mM, TAS2R1",0.006338
same,Δ F/F,"conc. 0,003 mM, TAS2R1",-0.001187
same,Activation threshold concentration TAS2R1,lowest concentration with significantly increased fluorescence vs empty vector (p < 0.01),100 µM and 100.00 µM
